Reference: ChEMBL document CHEMBL4043145, “Pyridine-pyrimidine amides that prevent HGF-induced epithelial scattering by two distinct mechanisms” (Bioorg Med Chem Lett, 2017)
pEC50: −log10 of the molar value.

Tests used:
MFE-296 [1] = assay: Cell cycle arrest in human MFE296 cells assessed as accumulation at G1 phase at 300 nM (reference value: 61.05 to 64.87%); type: functional
T47D [2] = assay: Cell cycle arrest in human T47D cells assessed as accumulation at G1 phase at 300 nM (reference value: 45.5 to 57.8%); type: functional
T47D [3] = assay: Cell cycle arrest in human T47D cells assessed as accumulation at G2/M phase at 100 nM (reference value: 20.58 to 28.8%); type: functional
MFE-280 [4] = assay: Induction of apoptosis in human MFE280 cells assessed as late apoptotic cells at 100 nM by 7-AAD/Annexin staining-based assay (reference value: 6 to 7.4%); type: functional
A2780 [5] = assay: Cell cycle arrest in human A2780 cells assessed as accumulation at G2/M phase at 300 nM (reference value: 19.42 to 20.43%); type: functional
MFE-296 [6] = assay: Cell cycle arrest in human MFE296 cells assessed as accumulation at S phase at 300 nM (reference value: 16.96 to 19.19%); type: functional
PC-3 [7] = assay: Cell cycle arrest in human p53-null PC3 cells assessed as accumulation at G1 phase at 300 nM (reference value: 50.77 to 51.16%); type: functional
A2780 [8] = assay: Cell cycle arrest in human A2780 cells assessed as accumulation at G1 phase at 300 nM (reference value: 55.26 to 55.66%); type: functional
MFE-296 [9] = assay: Cell cycle arrest in human MFE296 cells assessed as accumulation at S phase at 100 nM (reference value: 16.96 to 19.19%); type: functional
T47D [10] = assay: Cell cycle arrest in human T47D cells assessed as accumulation at G2/M phase at 300 nM (reference value: 20.58 to 28.8%); type: functional
MFE-280 [11] = assay: Induction of apoptosis in human MFE280 cells assessed as late apoptotic cells at 1000 nM by 7-AAD/Annexin staining-based assay (reference value: 6 to 7.4%); type: functional
MCF7 [12] = assay: Cell cycle arrest in human MCF7 cells assessed as accumulation at G1 phase at 100 nM (reference value: 47.47 to 52.3%); type: functional
A2780 [13] = assay: Antiproliferative activity against human A2780 cells; type: functional, cell-based
MCF7 [14] = assay: Cell cycle arrest in human MCF7 cells assessed as accumulation at G1 phase at 1000 nM (reference value: 47.47 to 52.3%); type: functional
MCF7 [15] = assay: Cell cycle arrest in human MCF7 cells assessed as accumulation at G2/M phase at 100 nM (reference value: 20.06 to 22.33%); type: functional
PC-3 [16] = assay: Cell cycle arrest in human p53-null PC3 cells assessed as accumulation at G2/M phase at 1000 nM (reference value: 18.37 to 18.96%); type: functional
PC-3 [17] = assay: Cell cycle arrest in human p53-null PC3 cells assessed as accumulation at S phase at 1000 nM (reference value: 29.08 to 29.33%); type: functional
MCF7 [18] = assay: Cell cycle arrest in human MCF7 cells assessed as accumulation at G2/M phase at 1000 nM (reference value: 20.06 to 22.33%); type: functional
MFE-280 [19] = assay: Cell cycle arrest in human MFE280 cells assessed as accumulation at S phase at 100 nM (reference value: 14.14 to 15.66%); type: functional

pEC50 (A2780 [13]): 7.26
SMILES: O=C(Nc1ccc(-c2cccc(Cl)c2)cn1)c1cncnc1
Activity (MFE-296 [1]): 13.78% | Activity (T47D [2]): 42.55% | Activity (T47D [3]): 19.68% | Activity (MFE-280 [4]): 8.3% | Activity (A2780 [5]): 30.36% | Activity (MFE-296 [6]): 20.61% | Activity (PC-3 [7]): 14.74% | Activity (A2780 [8]): 24.74% | Activity (MFE-296 [9]): 21.05% | Activity (T47D [10]): 22.28% | Activity (MFE-280 [11]): 8.4% | Activity (MCF7 [12]): 43.58% | Activity (MCF7 [14]): 8.04% | Activity (MCF7 [15]): 26.95% | Activity (PC-3 [16]): 76.06% | Activity (PC-3 [17]): 17.78% | Activity (MCF7 [18]): 63.38% | Activity (MFE-280 [19]): 18.71%
